# Entries after “also recorded” stand apart in the source; their conditions may differ.
# Key:
# [1] = system: tubulin acetylation versus lysine acetylation; experiment: Immunofluorescence assay for acetylated tubulin versus acetylated lysine; type: cell-based
# Excerpt: The present invention provides an immunofluorescence-based assay for identifying test agents with HDAC and/or TDAC inhibitory activity. The inventive assay is based on the use of specific antibodies for acetylated tubulin and acetylated lysine (i.e., a marker for acetylated histones). […] As described above, any type of agent, including small molecules, polymers, biomolecules, proteins, peptides, polynucleotides, etc., may be screened using the inventive assay. In certain embodiments, small molecules are screened. In certain particular embodiments, the small molecules are tubacin-like or are tubacin derivatives. In certain embodiments, the small molecules are compounds of the present invention. The test agents may also be small molecules purchased, prepared through traditional synthetic techniques, prepared through combinatorial chemistry techniques, or obtained from historical chemical collections. In certain embodiments, the test agents are biomolecules. In other embodiments, the test agents are proteins or peptides. In yet other embodiments, the test agents are polynucleotides. In certain embodiments, the test agents are polymers.
# The assay involves contacting cells with a specific concentration of the test agent under specific conditions. […] There particular parameters may be determined by the operator or scientist conducting the assay as would be appreciated by one of skill in this art. After a determined time of incubation with the test compound, the cells are treated with a first primary antibody directed against acetylated tubulin and a second primary antibody directed against acetylated lysine. […] The signal from each of the secondary antibodies is measured and optionally quantitated to determine the amount of TDAC and HDAC inhibition under the specified conditions with the test agent. Optionally, the extent of inhibition is determined relative to a control in which no test agent was added. In certain embodiments, the secondary antibody is left out and the primary antibodies are uniquely labeled for identification and optionally quantification. […]
# [2] = system: MM.1S cells; experiment: Cell cycle profile by flow cytometry (PI staining); type: cell-based, human; settings: 24 h
# Description: […] Cells were then stained with propidium iodine (PI, Sigma) (5 μg/ml) and cell cycle profile was determined using program M software on an Epics flow cytometer (Coulter Immunology, Hialeah, Fla.) (44).
# [3] = system: MM patient plasma cells from BM (BMPCs); experiment: MTT cytotoxicity assay in MM patient plasma cells; type: cell-based, human; settings: tubacin 5 μM with bortezomib, 24 h
# Excerpt: Dex-sensitive (MM.1S) and resistant (MM.1R) human MM cell lines were kindly provided by Dr. Steven Rosen (Northwestern University, Chicago, Ill.). RPMI8226 and U266 human MM cell lines were obtained from American Type Culture Collection (Rockville, Md.). IL-6 dependent INA-6 cell line was kindly provided by Dr M Gramatzki (Erlangen, Germany). Melphalan-resistant RPMI-LR5 and doxorubicin-resistant RPMI-Dox40 cell lines were provided by Dr William Dalton (Lee Moffitt Cancer Center, Tampa, Fla.). All MM cell lines were cultured in RPMI-1640 containing 10% fetal bovine serum (FBS, Sigma Chemical Co., St. Louis, Mo.), […] L-glutamine, 100 U/ml penicillin, and 100 μg/ml streptomycin (GIBCO, Grand Island, N.Y.). INA-6 cells were maintained with addition of IL-6 (1 ng/ml). MM patient plasma cells were purified from bone marrow (BM) aspirates by negative selection using an antibody cocktail (RosetteSep Separation System, StemCell Technologies, Vancouver, Canada), as previously described (31). The purity of MM cells was >90%, as confirmed by flow cytometric analysis using anti-CD138 Ab (BD Pharmingen, San Diego, Calif.). […]
# The inhibitory effect of bortezomib and/or tubacin on MM cell growth was assessed by measuring 3-(4,5-dimethylthiazol-2-yl)-2,5-diphenyl tetrazolium bromide (MTT) dye absorbance, as described previously (33). […]
# [4] = system: rat astrocytes and striatal neurons; experiment: Russell body formation in rat astrocytes and striatal neurons; type: cell-based; settings: previous experiments, comparable concentrations
# [5] = system: MM cell lines; experiment: MTT growth inhibition / cytotoxicity assay in MM cell lines; type: cell-based, human; settings: for growth inhibitory / cytotoxic effect as single agent: MM cell lines, MTT and 3H-thymidine uptake
# Description: The inhibitory effect of bortezomib and/or tubacin on MM cell growth was assessed by measuring 3-(4,5-dimethylthiazol-2-yl)-2,5-diphenyl tetrazolium bromide (MTT) dye absorbance, as described previously (33). […] All experiments were performed in quadruplicate.
# These cells were treated with tubacin (1.25-20 μM) for 48 h (FIG. 2A) and 72 h (FIG. 2B), and cytotoxicity was assessed by MTT assay, as describe.
# [6] = system: breast cancer cells; experiment: Synergy of bortezomib and tubacin in breast cancer; type: cell-based
# [7] = system: MM.1S and RPMI8226 cells; experiment: [3H]-thymidine uptake of MM cells adherent to BMSCs; type: cell-based, human
# Description: […] DNA synthesis was measured as described above.
# After treatment, DNA synthesis was measured by [^3H]-thymidine (Perkin Elmer, Boston Mass.) uptake, as previously described (44). All experiments were performed in quadruplicate.
# [8] = system: PBMCs; experiment: MTT cytotoxicity assay in normal PBMCs; type: cell-based, human; settings: PBMCs from normal volunteers, tubacin 2.5-20 μM, 48 h
smiles,measurement,setting,value
O=C(CCCCCCC(=O)Nc1ccc([C@H]2O[C@@H](CSc3nc(-c4ccccc4)c(-c4ccccc4)o3)C[C@@H](c3ccc(CO)cc3)O2)cc1)NO [tubacin],specificity for tubulin acetylation versus lysine acetylation,[1]; A549 cells,specificity
same,specificity for tubulin acetylation versus lysine acetylation,[1]; cells not given,specificity
same,G2/M arrest triggered by Velcade,[2]; Velcade 5 nM with tubacin 5 μM,significantly inhibits G2/M arrest
same,cell cycle profile,[2]; tubacin 5 μM alone,does not alter cell cycle profile
same,effect of tubacin on bortezomib (Velcade)-induced cytotoxicity in patient MM cells,[3],markedly augmented by tubacin; also recorded: significantly (p<0.01) augments cytotoxicity triggered by Velcade; also recorded: synergistically enhances bortezomib-induced cytotoxicity
same,Russell body formation,[4],features suggestive of Russell body formation
same,IC50,"[5]; Homo sapiens, 72 h, drug-sensitive and -resistant MM cell lines",5 to 20 µM
same,growth inhibitory / cytotoxic effect as single agent,[5],"marked anti-proliferative, proapoptotic effects; also recorded: dose-dependent growth inhibitory effect"
same,growth inhibitory / cytotoxic effect as single agent,[5]; listed as Tubacin,cytotoxic
same,effect of tubacin on bortezomib (Velcade)-induced cytotoxicity,"[5]; MM.1S and RPMI8226 cells, 24 h, MTT",synergistically enhances bortezomib-induced cytotoxicity; also recorded: Synergy; also recorded: potently sensitizes myeloma cells to subtoxic concentrations of bortezomib; also recorded: significantly (p<0.01) augmented cytotoxicity triggered by Velcade; also recorded: synergistic anti-tumor activity
same,synergy with bortezomib in breast cancer,[6],synergy
same,"BMSC-induced [3H]-thymidine uptake / MM cell growth with BMSCs, single agent","[7]; MM cells adherent to BMSCs, 24 h",inhibits BMSC-induced [^3H]-thymidine uptake in a dose-dependent fashion; also recorded: significantly inhibits MM.1S cell growth even in the presence of BMSCs; also recorded: inhibits paracrine MM cell growth
same,effect of tubacin on bortezomib-induced inhibition of [3H]-thymidine uptake,"[7]; adherent MM.1S and RPMI8226 cells, tubacin with bortezomib",significantly enhances bortezomib-induced inhibition of [^3H]-thymidine uptake; also recorded: further augmented cytotoxicity of Velcade
same,cytotoxicity of tubacin in PBMCs,[8],no cytotoxicity; also recorded: No adverse effect

# Source: patent US10172905B1, “Treatment of protein degradation disorders” (President and Fellows of Harvard College, priority 2005, dated 2019)
